From patent US8735609B2, “Bryostatin analogues, synthetic methods and uses” (The Board of Trustees of the Leland Stanford Junior …, priority 2007, dated 2014)

Legend:
U251 = experiment: NCI human cancer cell line growth inhibition: U251 (CNS); type: cell-based; conditions: Homo sapiens, U-251
SF-268 = experiment: NCI human cancer cell line growth inhibition: SF-268 (CNS); type: cell-based; conditions: Homo sapiens
HCT-116 = experiment: NCI human cancer cell line growth inhibition: HCT-116 (Colon); type: cell-based; conditions: Homo sapiens
CCRF-CEM = experiment: NCI human cancer cell line growth inhibition: CCRF-CEM (Leukemia); type: cell-based; conditions: Homo sapiens
[1] = test system: NCI human cancer cell-lines; experiment: In vitro inhibition of growth in NCI human cancer cell lines (panel); type: cell-based
COLO 205 = experiment: NCI human cancer cell line growth inhibition: COLO 205 (Colon); type: cell-based; conditions: Homo sapiens
SF-295 = experiment: NCI human cancer cell line growth inhibition: SF-295 (CNS); type: cell-based; conditions: Homo sapiens
LOX IMVI = experiment: NCI human cancer cell line growth inhibition: LOX IMVI (Melanoma); type: cell-based; conditions: Homo sapiens
HL-60(TB) = experiment: cells; type: cell-based, human; conditions: Homo sapiens, HL-60, read-out: Growth inhibition (GI50)
HOP-62 = experiment: NCI human cancer cell line growth inhibition: HOP-62 (NSC Lung); type: cell-based; conditions: Homo sapiens
MOLT-4 = experiment: NCI human cancer cell line growth inhibition: MOLT-4 (Leukemia); type: cell-based; conditions: Homo sapiens
SNB-75 = experiment: NCI human cancer cell line growth inhibition: SNB-75 (CNS); type: cell-based; conditions: Homo sapiens
SW-620 = experiment: NCI human cancer cell line growth inhibition: SW-620 (Colon); type: cell-based; conditions: Homo sapiens
RPMI-8226 = experiment: NCI human cancer cell line growth inhibition: RPMI-8226 (Leukemia); type: cell-based; conditions: Homo sapiens
HOP-92 = experiment: NCI human cancer cell line growth inhibition: HOP-92 (NSC Lung); type: cell-based; conditions: Homo sapiens
SF-539 = experiment: NCI human cancer cell line growth inhibition: SF-539 (CNS); type: cell-based; conditions: Homo sapiens
PC-3 = experiment: NCI human cancer cell line growth inhibition: PC-3 (Prostate); type: cell-based; conditions: Homo sapiens

## CCCCCCCC(=O)O[C@H]1/C(=C/C(=O)OC)C[C@H]2C[C@H](CO)OC(=O)C[C@H](O)C[C@@H]3CCC[C@H](C[C@@H]4CCO[C@H](/C=C/C(C)(C)[C@]1(O)O2)O4)O3 [Formula IIa (702.1)]
U251
  GI50: 3.98 µM
SF-268
  GI50: 10.7 µM
HCT-116
  GI50: 4.79 µM
CCRF-CEM
  GI50: 1.55 µM
[1]; K-562, MOLT-4, NCI-H460, HCC-2998, TK-10, MDA-MB-435
  more active than bryostatin-1: more than 2 orders of magnitude
[1]; all cell groups tested
  potency compared with bryostatin-1, on average: at least as potent, on average, as bryostatin-1
COLO 205
  GI50: 0.0832 µM
SF-295
  GI50: 0.891 µM
LOX IMVI
  GI50: 3.39 µM
HL-60(TB)
  GI50: 1.45 µM
HOP-62
  GI50: 16.2 µM
MOLT-4
  GI50: < 0.01 µM
SNB-75
  GI50: 10.7 µM
SW-620
  GI50: 7.59 µM
RPMI-8226
  GI50: 1.51 µM
HOP-92
  GI50: 21.4 µM
SF-539
  GI50: 1.7 µM
PC-3
  GI50: 2.51 µM
